Measured values: patent US10550130B2, “Benzo-thiazolo-imidazole compounds and uses thereof” (KING SAUD UNIVERSITY, priority 2015, dated 2020)

Assays:
intracellular Notch-1 = test: Immunofluorescence of intracellular Notch-1 in MDA-MB-231 breast cancer cells; format: cell-based; settings: MDA-MB-231 cells; 0.01, 0.1, 1 or 10 μM
Experimental: (§1) MDA-MB-231 breast cancer cells were treated either with vehicle (control) or with 0.01 μM, 0.1 μM, 1 μM or 10 μM final concentration of doxorubicin, taxotere or KSA-101696. Then, the cells were cytospun to glass slides by centrifugation at 800 rpm for 3 min. Slides were then air-dried overnight and 4% formaldehyde fixed for 10 min. For staining, the cell membrane was permeabilized with 0.5% triton-X (Sigma) followed by overnight incubation with primary antibodies (anti-Numb, Abcam) and (anti-intracellular Notch-1, Cell Signalling) at 1:100. Cells were washed and stained with AlexaFluor goat anti-rabbit IgG 488 (Invitrogenat) 1:400 for 30 minutes. 300 nM DAPI (Invitrogen, Carlsbad, Calif., USA) was added for 10 minutes to counterstain the nuclei. Slides were mounted and immunofluorescence was visualized using BD Pathway 855 microscope.
(§2) Numb exerts its functional role on cell fate decisions by antagonizing Notch signaling activities. The molecular mechanisms underlying this relationship appear to rely on the ubiquitination of the membrane bound Notch-1 receptor and the subsequent degradation of its NICD (Notch intracellular domain) following receptor activation.

Numb = test: Immunofluorescence of Numb in MDA-MB-231 breast cancer cells; format: cell-based; settings: MDA-MB-231 cells; 0.01, 0.1, 1 or 10 μM
Experimental: as §1, §2

[1] = Determination of LD50 value; settings: male, Swiss Webster Albino, mouse, in vivo, ip
Experimental: Swiss Webster Albino mice were housed in groups of 2 or 4 in elevated steel wire-mesh cages in a controlled room maintained at a temperature of 22±2° C., relative humidity of 50±10% and a 12 h light-dark cycle. Rodent diet chow (feed) provided by Grain Silos Flour Mills Organization, Riyadh, Saudi Arabia, and tap water for drinking were made available ad lib.
Male mice were divided into various groups (n=10 animals per group). Each group was administered a different dose of the respective compound via the intraperitoneal (i.p.) route. The dose range used was 100-5000 mg/kg.
During the observation periods there was a continuous record of any behavioral changes and clinical symptoms that caused by effects on the central and autonomic nervous systems, the respiratory and the cardiovascular systems or any other action on the gastrointestinal tract, the renal systems, eye, skin, skeletal muscles etc.
During the 72 hour observation period the number of animals that died in every group was recorded. The percentage of death calculated and converted to probits to calculate the LD50 value for each compound in mg/kg. The LD50 value reported in this study provided compounds in their liquid form in the provided concentrations.

Structure (SMILES)	Notch self-renewal pathway (intracellular Notch-1)	Numb expression (immunofluorescence microscopy) (Numb)	LD50 at 72 h [1] [mg/kg]
CC(=O)O[C@@]12CO[C@@H]1C[C@H](O)[C@@]1(C)C(=O)[C@H](O)C3=C(C)[C@@H](OC(=O)[C@H](O)[C@@H](NC(=O)OC(C)(C)C)c4ccccc4)C[C@@](O)([C@@H](OC(=O)c4ccccc4)[C@H]21)C3(C)C [taxotere]	activated the Notch self-renewal pathway	inhibited Numb expression	
COc1cccc2c1C(=O)c1c(O)c3c(c(O)c1C2=O)C[C@@](O)(C(=O)CO)C[C@@H]3O[C@H]1C[C@H](N)[C@H](O)[C@H](C)O1 [Doxorubicin]	activated the Notch self-renewal pathway	inhibited Numb expression	60
